The record followed here is US20180133203A1, “METHODS OF TREATING LIVER DISEASE” (Gilead Sciences, Inc., priority 2016, published 2018).

The subject of assay [1] is CDHFD/NaNO2 rats. The assay is described as follows: Quantitative IHC of the myofibroblast marker desmin in liver, CDHFD/NaNO2 rat model of NASH. In kind it is in vivo, male Wistar rats. Conditions: for liver % desmin marker area: mean±SEM, vehicle-treated CDHFD/NaNO2 rats 10.3±0.8%, healthy control 0.7±0.1%; for reduction of liver desmin staining: vs vehicle-treated CDHFD/NaNO2 rats, Formula (I) 0.2% in diet, Formula (III) 30 mg/kg/day, week 4 to 14. The method, then:
The following study was conducted to evaluate the efficacy of the combination of an ASK1 inhibitor and an FXR agonist in a rodent model of non-alcoholic steatohepatitis (NASH), relative to the efficacy of the individual agents alone in the model. NASH was induced in male Wistar rats by administration of a choline-deficient high fat diet (CDHFD) combined with the chronic administration of sodium nitrite (CDHFD/NaNO2). The model capitalizes on the “two hit theory” of NASH by inducing both metabolic dysfunction (CDHFD) and oxidative stress (NaNO2) in the liver to result in hepatic fibrosis that is similar in character and severity to that seen in patients with advanced NASH. Rats were fed CDHFD for a total of 14 weeks and were administered NaNO2 from week 4 to 14. The compound of Formula (III) (given as admixture in diet, adjusted to deliver 30 mg/kg/day), compound of Formula (I) (administered as a 0.2% admixture in diet), or vehicle was administered from week 4 to 14. The following endpoints were assessed at the completion of the 14 week study: i) liver fibrosis measured by liver hydroxyproline (OHP) content and by quantitative morphometric analysis of collagen content by Picosirius red (PSR) staining; ii) myofibroblast activation in liver sections as measured by quantitative IHC of the myofibroblast marker desmin; and, iii) Col1a1 and Timp1 in liver tissue measured by RT-PCR. All CDHFD/NaNO2 animals were fed a choline-deficient high-fat diet (CDHFD; Research Diets, Inc) for 14 weeks and were also administered intraperitoneal injections of NaNO2 (3 injections per week; Sigma Aldrich #31443) at a dose of 25 mg/kg (from week 4 to 10) and at a dose of 12.5 mg/kg (from week 10 to 14). Formula (III) (given as admixture in the CDHFD diet, adjusted to deliver 30 mg/kg/day, n=10 animals per group) and Formula (I) (given as a 0.2% admixture in the CDHFD diet, n=10 per group) were administered drug from week 4 to 14. Vehicle control animals were administered the same CDHFD diet with no drug added (Vehicle; n=10 animals per group) from week 4 to 14. […] On the final day of study, rats received a single oral gavage of either Formula (I) or Formula (III) at a dose of 30 mg/kg, four hours before animals were euthanized and tissues were collected for analyses. All endpoints were assessed at the completion of the 14 week study protocol. Whole slide images of Picrosirius Red (PSR) and Desmin stained slides were captured using a Leica AT2 scanner at 40× magnification. […] Quantitative image analysis was performed on the whole slide-scan images using Definiens Tissue Studio Architect XD (Definiens Inc.) to determine the extent and intensity of PSR and Desmin. […] The total PSR-stained area and Desmin IHC staining were measured and expressed as a percentage of total liver area stained.

The test system of assay [2] is FFD mice. As to the kind of experiment: Plasma bile acids by LC-MS/MS in FFD mouse model of NASH. In kind it is in vivo, male C57BL/6 mice. Conditions: Formula (I) 0.15% admixture in diet, Formula (III) 10 mg/kg PO QD, months 7-10. The method, then: The following study was conducted to evaluate the efficacy of the combination of an ASK1 inhibitor and an FXR agonist in a mouse model of non-alcoholic steatohepatitis (NASH), relative to the efficacy of the individual agents alone in the model. NASH was induced in male C57BL/6 mice by chronic administration of a “fast food” diet (FFD) high in saturated fats, cholesterol and sugars for a total of 10 months, whereas lean control animals were maintained on a normal chow diet. A NASH phenotype was established in FFD mice compared to control mice by 7 months, and was characterized by obesity, hypercholesterolemia, and AST/ALT elevation; and by histological features of NASH such as hepatocellular macrovesicular steatosis and ballooning degeneration. See Charlton M, et al. Fast food diet mouse: novel small animal model of NASH with ballooning, progressive fibrosis, and high physiological fidelity to the human condition. American journal of physiology. Gastrointestinal and liver physiology 2011; 301 (5):G825-34. […] Endpoint analyses included morphometric quantification of liver steatosis (% of steatotic area), liver cholesterol content, serum ALT/AST levels, serum bile acid levels, and nanostring evaluation of gene expression. […] Plasma samples were sent to Metabolon, Inc. (Durham, N.C.) for quantification of primary and secondary bile acids and their conjugates by LC-MS/MS.

For the molecule `O=C(Nc1cccc(-c2nncn2C2CC2)c1)c1cc(-n2cnc(C3CC3)c2)ccn1` [Formula (I)], in assay [1], the “liver % desmin marker area” value was determined as 5.6±0.7% and the “reduction of liver desmin staining” value came to 46%. Further, the “reduction in plasma bile acid levels” value in assay [2] was determined as 52%.
The corresponding values for `O=C(O)c1ccnc(N2CC(O)(c3ccc(OCc4c(-c5c(Cl)cccc5Cl)noc4C4CC4)cc3Cl)C2)c1` [Formula (III)] are 5.9±0.7%, 43% and 46%.
